Measurements from patent US8192962B2, “Processes for detecting toxic substances” (Daikin Industries, Ltd., priority 2001, dated 2012).

Tested on: Transport facilitation protein genes
Test: DNA chip mRNA expression in yeast, transport facilitation protein genes (Table 5)
Type: cell-based, Saccharomyces cerevisiae S288C
Outline: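 Measured as treated-to-untreated fluorescence ratio on a full-genome yeast DNA chip. Cells (S288C, YPD, 25° C.) were exposed in log phase for two hours to one chemical, dosed to curb growth without killing.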

## COc1cc(CNC(=O)CCCCC=CC(C)C)ccc1O [(12), 8-methyl-N-vanillyl-6-nonenamide]
Yeast gene YGR281W
  The level of expressed mRNA in the presence of chemical substance/The level of expressed mRNA in the absence of chemical substance: 2.4
Yeast gene YHL035C
  The level of expressed mRNA in the presence of chemical substance/The level of expressed mRNA in the absence of chemical substance: 1.4
Yeast gene YHL040C
  The level of expressed mRNA in the presence of chemical substance/The level of expressed mRNA in the absence of chemical substance: 2.0
Yeast gene YHL047C
  The level of expressed mRNA in the presence of chemical substance/The level of expressed mRNA in the absence of chemical substance: 2.6
Yeast gene YHR026W
  The level of expressed mRNA in the presence of chemical substance/The level of expressed mRNA in the absence of chemical substance: 0.7
Yeast gene YHR092C
  The level of expressed mRNA in the presence of chemical substance/The level of expressed mRNA in the absence of chemical substance: 1.0
Yeast gene YHR094C
  The level of expressed mRNA in the presence of chemical substance/The level of expressed mRNA in the absence of chemical substance: 0.9
Yeast gene YHR175W
  The level of expressed mRNA in the presence of chemical substance/The level of expressed mRNA in the absence of chemical substance: 1.4
Yeast gene YIL006W
  The level of expressed mRNA in the presence of chemical substance/The level of expressed mRNA in the absence of chemical substance: 0.9
Yeast gene YIL022W
  The level of expressed mRNA in the presence of chemical substance/The level of expressed mRNA in the absence of chemical substance: 0.9
Yeast gene YIL056W
  The level of expressed mRNA in the presence of chemical substance/The level of expressed mRNA in the absence of chemical substance: 1.0
Yeast gene YIL088C
  The level of expressed mRNA in the presence of chemical substance/The level of expressed mRNA in the absence of chemical substance: 0.9
Yeast gene YJL034W
  The level of expressed mRNA in the presence of chemical substance/The level of expressed mRNA in the absence of chemical substance: 1.6
Yeast gene YJL212C
  The level of expressed mRNA in the presence of chemical substance/The level of expressed mRNA in the absence of chemical substance: 0.4
Yeast gene YJL219W
  The level of expressed mRNA in the presence of chemical substance/The level of expressed mRNA in the absence of chemical substance: 1.1
Yeast gene YJR077C
  The level of expressed mRNA in the presence of chemical substance/The level of expressed mRNA in the absence of chemical substance: 1.0
Yeast gene YJR106W
  The level of expressed mRNA in the presence of chemical substance/The level of expressed mRNA in the absence of chemical substance: 0.9
Yeast gene YJR121W
  The level of expressed mRNA in the presence of chemical substance/The level of expressed mRNA in the absence of chemical substance: 0.8
Yeast gene YKL016C
  The level of expressed mRNA in the presence of chemical substance/The level of expressed mRNA in the absence of chemical substance: 1.0
Yeast gene YKL146W
  The level of expressed mRNA in the presence of chemical substance/The level of expressed mRNA in the absence of chemical substance: 1.1
Yeast gene YKR039W
  The level of expressed mRNA in the presence of chemical substance/The level of expressed mRNA in the absence of chemical substance: 1.5
Yeast gene YKR067W
  The level of expressed mRNA in the presence of chemical substance/The level of expressed mRNA in the absence of chemical substance: 1.0
Yeast gene YLL028W
  The level of expressed mRNA in the presence of chemical substance/The level of expressed mRNA in the absence of chemical substance: 1.3
Yeast gene YLL055W
  The level of expressed mRNA in the presence of chemical substance/The level of expressed mRNA in the absence of chemical substance: 0.7
Yeast gene YLR081W
  The level of expressed mRNA in the presence of chemical substance/The level of expressed mRNA in the absence of chemical substance: 1.0
Yeast gene YLR295C
  The level of expressed mRNA in the presence of chemical substance/The level of expressed mRNA in the absence of chemical substance: 0.5
Yeast gene YLR348C
  The level of expressed mRNA in the presence of chemical substance/The level of expressed mRNA in the absence of chemical substance: 0.9
Yeast gene YLR378C
  The level of expressed mRNA in the presence of chemical substance/The level of expressed mRNA in the absence of chemical substance: 1.2
Yeast gene YML116W
  The level of expressed mRNA in the presence of chemical substance/The level of expressed mRNA in the absence of chemical substance: 0.5
Yeast gene YMR011W
  The level of expressed mRNA in the presence of chemical substance/The level of expressed mRNA in the absence of chemical substance: 0.8
Yeast gene YMR162C
  The level of expressed mRNA in the presence of chemical substance/The level of expressed mRNA in the absence of chemical substance: 0.7
Yeast gene YMR203W
  The level of expressed mRNA in the presence of chemical substance/The level of expressed mRNA in the absence of chemical substance: 0.7
Yeast gene YNL055C
  The level of expressed mRNA in the presence of chemical substance/The level of expressed mRNA in the absence of chemical substance: 1.7
Yeast gene YNL259C
  The level of expressed mRNA in the presence of chemical substance/The level of expressed mRNA in the absence of chemical substance: 0.7
Yeast gene YNR072W
  The level of expressed mRNA in the presence of chemical substance/The level of expressed mRNA in the absence of chemical substance: 1.0
Yeast gene YOL119C
  The level of expressed mRNA in the presence of chemical substance/The level of expressed mRNA in the absence of chemical substance: 0.9
Yeast gene YOL156W
  The level of expressed mRNA in the presence of chemical substance/The level of expressed mRNA in the absence of chemical substance: 0.9
Yeast gene YOL163W
  The level of expressed mRNA in the presence of chemical substance/The level of expressed mRNA in the absence of chemical substance: 1.0
Yeast gene YOR035C
  The level of expressed mRNA in the presence of chemical substance/The level of expressed mRNA in the absence of chemical substance: 1.1
Yeast gene YOR130C
  The level of expressed mRNA in the presence of chemical substance/The level of expressed mRNA in the absence of chemical substance: 0.9
Yeast gene YOR153W
  The level of expressed mRNA in the presence of chemical substance/The level of expressed mRNA in the absence of chemical substance: 4.0
Yeast gene YOR270C
  The level of expressed mRNA in the presence of chemical substance/The level of expressed mRNA in the absence of chemical substance: 0.7
Yeast gene YOR273C
  The level of expressed mRNA in the presence of chemical substance/The level of expressed mRNA in the absence of chemical substance: 0.8
Yeast gene YOR316C
  The level of expressed mRNA in the presence of chemical substance/The level of expressed mRNA in the absence of chemical substance: 1.1
Yeast gene YOR328W
  The level of expressed mRNA in the presence of chemical substance/The level of expressed mRNA in the absence of chemical substance: 1.8
Yeast gene YOR332W
  The level of expressed mRNA in the presence of chemical substance/The level of expressed mRNA in the absence of chemical substance: 1.0
Yeast gene YOR348C
  The level of expressed mRNA in the presence of chemical substance/The level of expressed mRNA in the absence of chemical substance: 0.7
Yeast gene YPL036W
  The level of expressed mRNA in the presence of chemical substance/The level of expressed mRNA in the absence of chemical substance: 0.5
Yeast gene YPL134C
  The level of expressed mRNA in the presence of chemical substance/The level of expressed mRNA in the absence of chemical substance: 0.8
Yeast gene YPL265W
  The level of expressed mRNA in the presence of chemical substance/The level of expressed mRNA in the absence of chemical substance: 0.9
Yeast gene YPL271W
  The level of expressed mRNA in the presence of chemical substance/The level of expressed mRNA in the absence of chemical substance: 0.8
Yeast gene YPR124W
  The level of expressed mRNA in the presence of chemical substance/The level of expressed mRNA in the absence of chemical substance: 0.8
Yeast gene YPR192W
  The level of expressed mRNA in the presence of chemical substance/The level of expressed mRNA in the absence of chemical substance: 0.5
Yeast gene YPR194C
  The level of expressed mRNA in the presence of chemical substance/The level of expressed mRNA in the absence of chemical substance: 0.7
